# Reference: patent US8772316B2, “Substituted 6,7-dialkoxy-3-isoquinolinol derivatives as inhibitors of phosphodiesterase 10 (PDE10A)” (Allergan, Inc., priority 2011, dated 2014)
# Counter-ions that a name gives are not always drawn.
# Target: PDE10A
# Test: Phosphodiesterase assay (TR-FRET, LANCE cAMP kit)
# Assay type: biochemical
# Conditions: PDE10A (BPS Bioscience) 200 pg/well, biotin-cAMP substrate, 60 min at room temperature
# Protocol: (§1) The PDE assay is based on the homogenous time-resolved fluorescence resonance energy transfer (TR-FRET) technology (LANCE® from Perkin Elmer). […] When there is PDE activity, resulting in the degradation of the cyclic nucleotide, the complex is not formed and a decrease in signal is observed.
# (§2) The phosphodiesterase assay was developed using the LANCE® cAMP kit (PerkinElmer). The assay buffer contained HBSS with 5 mM HEPES, 0.1% BSA, and 1.5 mM MgCl2, pH 7.4. PDE10A (BPS Bioscience) was used at 200 pg/well (with a specific activity of 3200 pmole/min/μg with assay conditions: 10 mM Tris-HCl, pH7.4, 10 mM MgCl2, 1 mM MnCl2, 200 μM cAMP, 2.5 kU 5′ nucleotidase, 37° C., 20 min). […] Chemical compounds were dissolved in DMSO (final concentration 2% (v/v)).
# (§3) In a 384-well plate, 2 μL inhibitor and 3 μL PDE were added to the well, followed by the addition of 5 μl substrate biotinylated cAMP (1:5). After 60 min incubation at room temperature, 10 μL of assay detection mixture was added to the assay plate. After 1 h at room temperature, the signal was measured on EnVision™ (Perkin Elmer).
row,Structure (SMILES),IC50 [nM]
1,"CCCc1nc(N)c(Cc2ccc3oc4ccccc4c3c2)c2cc(OC)c(OC)cc12 [Compound 65, 4-(dibenzo[b,d]furan-2-ylmethyl)-6,7-dimethoxy-1-propylisoquinolin-3-amine hydrochloride]",967
2,"CCNc1nc2ccc(OC)cc2cc1Cc1c(O)nc(COC)c2cc(OC)c(OC)cc12 [Compound 67, 4-((2-(ethylamino)-6-methoxyquinolin-3-yl)methyl)-6,7-dimethoxy-1-(methoxymethyl)isoquinolin-3-ol dihydrochloride]",1.8
3,"CCc1nc(O)c(Cc2cc3cc(OC)ccc3nc2N=[N+]=[N-])c2cc(OC)c(OC)cc12 [Compound 68, 4-((2-Azido-6-methoxyquinolin-3-yl)methyl)-1-ethyl-6,7-dimethoxyisoquinolin-3-ol dihydrochloride]",200
4,"CCc1nc(O)c(Cc2cc3cc(OC)ccc3nc2NCCNC(C)=O)c2cc(OC)c(OC)cc12 [Compound 69, N-(2-(3-((1-Ethyl-3-hydroxy-6,7-dimethoxyisoquinolin-4-yl)methyl)-6-methoxyquinolin-2-ylamino)ethyl)acetamide dihydrochloride]",1.5
5,"CCCCc1nc2ccc(OC)cc2cc1Cc1c(O)nc(CCC)c2cc(OC)c(OC)cc12 [Compound 71, 4-((2-Butyl-6-methoxyquinolin-3-yl)methyl)-6,7-dimethoxy-1-propylisoquinolin-3-ol dihydrochloride]",93
6,"CCCc1nc(O)c(Cc2cnc3ccccc3c2)c2cc(OC)c(OC)cc12 [Compound 74, 6,7-dimethoxy-1-propyl-4-(quinolin-3-ylmethyl)isoquinolin-3-ol hydrochloride]",6.1
7,"CCNc1nc2ccc(OC)cc2cc1C(=O)c1c(O)nc(C)c2cc(OC)c(OC)cc12 [Compound 75, (2-(ethylamino)-6-methoxyquinolin-3-yl)(3-hydroxy-6,7-dimethoxy-1-methylisoquinolin-4-yl)methanone dihydrochloride]",> 1000
8,"CCCc1nc(O)c(Cc2cc3cc(OC)ccc3nc2NCCOC)c2cc(OC)c(OC)cc12 [Compound 76, 6,7-dimethoxy-4-((6-methoxy-2-(2-methoxyethylamino)quinolin-3-yl)methyl)-1-propylisoquinolin-3-ol dihydrochloride]",2.3
9,"CCc1nc(O)c(Cc2cnc3ccccc3c2)c2cc(OC)c(OC)cc12 [Compound 78, 1-ethyl-6,7-dimethoxy-4-(quinolin-3-ylmethyl)isoquinolin-3-ol dihydrochloride]",27
10,"CCc1nc(O)c(Cc2ccc3nc(C)ccc3c2)c2cc(OC)c(OC)cc12 [Compound 81, 1-Ethyl-6,7-dimethoxy-4-((2-methylquinolin-6-yl)methyl)isoquinolin-3-ol dihydrochloride]",7.5
11,"CCNc1nc2cc(F)c(OC)cc2cc1Cc1c(O)nc(CC)c2cc(OC)c(OC)cc12 [Compound 82, 1-Ethyl-4-((2-(ethylamino)-7-fluoro-6-methoxyquinolin-3-yl)methyl)-6,7-dimethoxyisoquinolin-3-ol dihydrochloride]",1.4
12,"CCCc1nc(O)c(Cc2cnc3ccc(OC)cc3c2)c2cc(OC)c(OC)cc12 [Compound 84, 6,7-Dimethoxy-4-((6-methoxyquinolin-3-yl)methyl)-1-propylisoquinolin-3-ol dihydrochloride]",1.6
13,"CCc1nc(O)c(Cc2cc3cc(OCC4CC4)ccc3nc2NCCNC(C)=O)c2cc(OC)c(OC)cc12 [Compound 87, N-(2-((6-(cyclopropylmethoxy)-3-((1-ethyl-3-hydroxy-6,7-dimethoxyisoquinolin-4-yl)methyl)quinolin-2-yl)amino)ethyl)acetamide dihydrochloride]",3.9

# Second part, the molecule after the results:
row,IC50 [nM],Structure (SMILES)
1,560,"CCCc1nc(O)c(Cc2cc3cc4c(cc3nc2N(C)C)OCO4)c2cc(OC)c(OC)cc12 [Compound 63, 4-((6-(dimethylamino)-[1,3]dioxolo[4,5-g]quinolin-7-yl)methyl)-6,7-dimethoxy-1-propylisoquinolin-3-ol dihydrochloride]"
2,16,"CCCc1nc(O)c(Cc2cc3cc(OC)ccc3nc2CC)c2cc(OC)c(OC)cc12 [Compound 66, 4-((2-ethyl-6-methoxyquinolin-3-yl)methyl)-6,7-dimethoxy-1-propylisoquinolin-3-ol dihydrochloride]"
3,2.4,"CCCc1nc(O)c(Cc2cc3cc(OC)c(F)cc3nc2NCC)c2cc(OC)c(OC)cc12 [Compound 70, 4-((2-(Ethylamino)-7-fluoro-6-methoxyquinolin-3-yl)methyl)-6,7-dimethoxy-1-propylisoquinolin-3-ol dihydrochloride]"
4,445,"CCCc1nc(O)c(Cc2cc3cc(OC)ccc3nc2C(F)(F)F)c2cc(OC)c(OC)cc12 [Compound 72, 6,7-Dimethoxy-4-((6-methoxy-2-(trifluoromethyl)quinolin-3-yl)methyl)-1-propylisoquinolin-3-ol hydrochloride]"
5,2.7,"COc1ccc2nc(NCCNC(C)=O)c(Cc3c(O)nc(C)c4cc(OC)c(OC)cc34)cc2c1 [Compound 73, N-(2-(3-((3-hydroxy-6,7-dimethoxy-1-methylisoquinolin-4-yl)methyl)-6-methoxyquinolin-2-ylamino)ethyl)acetamide dihydrochloride]"
6,10,"CCCc1nc(O)c(Cc2cc3cc(OCC4CC4)ccc3nc2NCCNC(C)=O)c2cc(OC)c(OC)cc12 [Compound 83, N-(2-(6-(cyclopropylmethoxy)-3-((3-hydroxy-6,7-dimethoxy-1-propylisoquinolin-4-yl)methyl)quinolin-2-ylamino)ethyl)acetamide dihydrochloride]"
7,0.4,"CCc1nc(O)c(Cc2cnc3ccc(OC)cc3c2)c2cc(OC)c(OC)cc12 [Compound 85, 1-ethyl-6,7-dimethoxy-4-((6-methoxyquinolin-3-yl)methyl)isoquinolin-3-ol dihydrochloride]"

# Target: PDE10A (Homo sapiens, UniProt Q9Y233)
# Test: Phosphodiesterase assay (TR-FRET, LANCE cAMP kit)
# Assay type: biochemical
# Conditions: PDE10A (BPS Bioscience) 200 pg/well, biotin-cAMP substrate, 60 min at room temperature
# Protocol: as §1, §2, §3
# Chain of PDE10A (Homo sapiens, UniProt Q9Y233) (Q9Y233 whole entry, looked up): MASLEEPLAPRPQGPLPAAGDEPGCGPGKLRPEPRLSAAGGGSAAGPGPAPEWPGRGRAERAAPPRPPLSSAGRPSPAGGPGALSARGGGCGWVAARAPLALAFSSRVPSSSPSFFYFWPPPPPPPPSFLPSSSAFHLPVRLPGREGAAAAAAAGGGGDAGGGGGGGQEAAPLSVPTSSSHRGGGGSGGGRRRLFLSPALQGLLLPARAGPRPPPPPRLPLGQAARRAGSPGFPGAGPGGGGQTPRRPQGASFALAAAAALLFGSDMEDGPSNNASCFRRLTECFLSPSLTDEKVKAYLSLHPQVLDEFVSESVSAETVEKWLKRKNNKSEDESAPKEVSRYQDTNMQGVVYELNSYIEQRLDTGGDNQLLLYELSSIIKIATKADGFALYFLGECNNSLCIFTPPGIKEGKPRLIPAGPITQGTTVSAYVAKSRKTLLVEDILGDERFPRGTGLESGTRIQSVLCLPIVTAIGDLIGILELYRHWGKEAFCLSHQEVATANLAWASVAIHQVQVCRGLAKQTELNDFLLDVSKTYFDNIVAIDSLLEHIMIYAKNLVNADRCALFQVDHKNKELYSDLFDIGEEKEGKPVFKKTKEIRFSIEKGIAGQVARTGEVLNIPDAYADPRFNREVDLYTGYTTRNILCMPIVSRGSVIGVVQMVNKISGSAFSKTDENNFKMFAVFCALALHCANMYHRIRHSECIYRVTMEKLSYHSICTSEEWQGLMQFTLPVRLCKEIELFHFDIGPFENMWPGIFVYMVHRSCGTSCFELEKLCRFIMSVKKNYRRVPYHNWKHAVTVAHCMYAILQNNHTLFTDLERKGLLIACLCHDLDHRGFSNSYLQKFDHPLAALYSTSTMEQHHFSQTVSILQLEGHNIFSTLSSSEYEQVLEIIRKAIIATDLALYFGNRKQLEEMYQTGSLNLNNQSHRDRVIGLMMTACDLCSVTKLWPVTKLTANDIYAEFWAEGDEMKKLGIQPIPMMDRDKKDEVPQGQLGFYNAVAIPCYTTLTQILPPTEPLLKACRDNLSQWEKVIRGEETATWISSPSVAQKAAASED
row,Structure (SMILES),IC50 [nM]
1,"COc1cc2c(C)nc(O)c(Cc3ccncc3)c2cc1OC [Compound 11, 6,7-dimethoxy-1-methyl-4-(pyridin-4-ylmethyl)isoquinolin-3-ol hydrochloride]",223
2,"CCc1nc(O)c(Cc2ccc3ccccc3c2)c2cc(OC)c(OC)cc12 [Compound 19, 1-ethyl-6,7-dimethoxy-4-(naphthalen-2-ylmethyl)isoquinolin-3-ol hydrochloride]",11
3,"COc1cc2c(C)nc(O)c(Cc3ccnc4ccccc34)c2cc1OC [Compound 25, 6,7-Dimethoxy-1-methyl-4-(quinolin-4-ylmethyl)isoquinolin-3-ol dihydrochloride]",265
4,"CCCc1nc(O)c(Cc2cc3cc(C)ccc3nc2NCC)c2cc(OC)c(OC)cc12 [Compound 35, 4-((2-(Ethylamino)-6-methylquinolin-3-yl)methyl)-6,7-dimethoxy-1-propylisoquinolin-3-ol dihydrochloride]",1.5
5,"CCc1nc(O)c(Cc2cc3cc(OC)ccc3nc2NC(C)C)c2cc(OC)c(OC)cc12 [Compound 43, 1-Ethyl-4-((2-(isopropylamino)-6-methoxyquinolin-3-yl)methyl)-6,7-dimethoxyisoquinolin-3-ol dihydrochloride]",3.5

# More lines, now with the values ahead:
row,IC50 [nM],Structure (SMILES)
1,140,"COc1cc2c(C)nc(O)c(Cc3cccc(Oc4ccccc4)c3)c2cc1OC [Compound 4, 6,7-dimethoxy-1-methyl-4-(3-phenoxybenzyl)isoquinolin-3-ol hydrochloride]"
2,50,"COc1ccc(-c2cccc(Cc3c(O)nc(C)c4cc(OC)c(OC)cc34)n2)cc1 [Compound 13, 6,7-dimethoxy-4-((6-(4-methoxyphenyl)pyridin-2-yl)methyl)-1-methylisoquinolin-3-ol dihydrochloride]"
3,97,"COc1cc2c(C)nc(O)c(Cc3cncc(-c4ccccc4)c3)c2cc1OC [Compound 15, 6,7-Dimethoxy-1-methyl-4-((5-phenylpyridin-3-yl)methyl)isoquinolin-3-ol dihydrochloride]"
4,333,"COc1cc2c(C)nc(O)c(Cc3ccc4cnccc4c3)c2cc1OC [Compound 21, 4-(Isoquinolin-6-ylmethyl)-6,7-dimethoxy-1-methylisoquinolin-3-ol dihydrochloride]"
5,333,"COc1cc2c(C)nc(O)c(Cc3cccc4cnccc34)c2cc1OC [Compound 22, 4-(Isoquinolin-5-ylmethyl)-6,7-dimethoxy-1-methylisoquinolin-3-ol dihydrochloride]"
6,29,"COc1ccc2cc(Cc3c(O)nc(C)c4cc(OC)c(OC)cc34)cnc2c1 [Compound 29, 6,7-Dimethoxy-4-((7-methoxyquinolin-3-yl)methyl)-1-methylisoquinolin-3-ol dihydrochloride]"
7,21,"CCOc1ccc2cc(Cc3c(O)nc(C)c4cc(OC)c(OC)cc34)cnc2c1 [Compound 30, 4-((7-ethoxyquinolin-3-yl)methyl)-6,7-dimethoxy-1-methylisoquinolin-3-ol dihydrochloride]"
8,698,"CCCc1nc(O)c(Cc2cc3cc(C)ccc3nc2N(C)C)c2cc(OC)c(OC)cc12 [Compound 36, 4-((2-(Dimethylamino)-6-methylquinolin-3-yl)methyl)-6,7-dimethoxy-1-propylisoquinolin-3-ol dihydrochloride]"
9,2.7,"CCCNc1nc2ccc(OC)cc2cc1Cc1c(O)nc(C)c2cc(OC)c(OC)cc12 [Compound 38, 6,7-dimethoxy-4-((6-methoxy-2-(propylamino)quinolin-3-yl)methyl)-1-methylisoquinolin-3-ol dihydrochloride]"
